The melting point is the temperature, or range, at which the solid turns liquid.

`CCc1oc(-c2ccc(C(F)(F)F)cc2)cc1CCCOc1ccc(C(C)(C)C(=O)O)cc1` [Example 6(44), 2-[4-(3-{2-Ethyl-5-[4-(trifluoromethyl)phenyl]-3-furyl}propoxy)phenyl]-2-methylpropionic acid]: the melting point lay within 102 to 103 °C.

For the compound `CCc1oc(-c2ccc(C(F)(F)F)cc2)cc1CCCOc1cccc(C(C)(C)C(=O)O)c1` [Example 6(45), 2-[3-(3-{2-Ethyl-5-[4-(trifluoromethyl)phenyl]-3-furyl}propoxy)phenyl]-2-methylpropionic acid], the melting point lay in the range of 94 to 95 °C.

The compound `CCc1oc(-c2ccc(C(F)(F)F)cc2)cc1CCCOc1cc(CC(=O)O)ccc1F` [Example 6(46), [3-(3-{2-Ethyl-5-[4-(trifluoromethyl)phenyl]-3-furyl}propoxy)-4-fluorophenyl]acetic acid] showed a melting point of 91 to 93 °C.

Compound `CCc1oc(-c2ccc(C(F)(F)F)cc2)cc1CCCOc1ccc(F)c(CC(=O)O)c1` [Example 6(47), [5-(3-{2-Ethyl-5-[4-(trifluoromethyl)phenyl]-3-furyl}propoxy)-2-fluorophenyl]acetic acid] returned a melting point of 128 to 129 °C.

The compound `CCc1oc(-c2ccc(C(F)(F)F)cc2)cc1CCCOc1cccc(CC(=O)O)c1C` [Example 6(50), [3-(3-{2-Ethyl-5-[4-(trifluoromethyl)phenyl]-3-furyl}propoxy)-2-methylphenyl]acetic acid] displayed a melting point of 109 to 110 °C.

`COc1cccc(-c2cc(CSc3nc(C)c(CC(=O)O)s3)c(C)o2)c1` [Example 6(53), [2-({[5-(3-Methoxyphenyl)-2-methyl-3-furyl]methyl}thio)-4-methyl-1,3-thiazol-5-yl]acetic acid]: the melting point was in the range of 174 to 176 °C.

`Cc1oc(-c2cccc(C(F)(F)F)c2)cc1COc1cccc(CSC(C)(C)C(=O)O)c1` [Example 6(59), 2-Methyl-2-{[3-({2-methyl-5-[3-(trifluoromethyl)phenyl]-3-furyl}methoxy)benzyl]thio}propionic acid] registered a melting point of 81 to 82 °C.

As for `COc1cccc(-c2cc(COc3ccc(OC(C)(C)C(=O)O)cc3)c(C)o2)c1` [Example 6(60), 2-(4-{[5-(3-Methoxyphenyl)-2-methyl-3-furyl]methoxy}phenoxy)-2-methylpropionic acid], the melting point was in the range of 111 to 112 °C.

`Cc1oc(-c2cccc(C(F)(F)F)c2)cc1COc1ccc(OC(C)(C)C(=O)O)cc1` [Example 6(63), 2-Methyl-2-[4-({2-methyl-5-[3-(trifluoromethyl)phenyl]-3-furyl}methoxy)phenoxy]propionic acid] gave a melting point of 83 to 84 °C.

`Cc1oc(-c2ccc(F)cc2)cc1COc1cccc(C(C)SC(C)(C)C(=O)O)c1` (stereo not shown) [Example 6(65), 2-{[1-(3-{[5-(4-Fluorophenyl)-2-methyl-3-furyl]methoxy}phenyl)ethyl]thio}-2-methylpropionic acid] displayed a melting point of 89 to 90 °C.

The compound `Cc1oc(-c2ccc(C(F)(F)F)cc2)cc1COc1cccc(C(C)SC(C)(C)C(=O)O)c1` (stereo not shown) [Example 6(66), 2-Methyl-2-({1-[3-({2-methyl-5-[4-(trifluoromethyl)phenyl]-3-furyl}methoxy)phenyl]ethyl}thio)propionic acid] had a melting point of 75 to 77 °C.

The compound `Cc1oc(-c2ccc(C(F)(F)F)cc2)cc1COc1ccc(OC(C)(C)C(=O)O)c(F)c1` [Example 6(68), 2-[2-Fluoro-4-({2-methyl-5-[4-(trifluoromethyl)phenyl]-3-furyl}methoxy)phenoxy]-2-methylpropionic acid] gave a melting point of 82 to 83 °C.

For `Cc1oc(-c2ccc(C(F)(F)F)cc2)cc1COc1cccc(COC(C)(C)C(=O)O)c1` [Example 6(70), 2-Methyl-2-{[3-({2-methyl-5-[4-(trifluoromethyl)phenyl]-3-furyl}methoxy)benzyl]oxy}propionic acid], the melting point fell in the range of 95 to 96 °C.

As to `CCC(Cc1ccc(OCc2cc(-c3ccc(C(F)(F)F)cc3)oc2C)cc1C)C(=O)O` (stereo not shown) [Example 6(75), 2-[2-Methyl-4-({2-methyl-5-[4-(trifluoromethyl)phenyl]-3-furyl}methoxy)benzyl]butanoic acid], the melting point is 118 to 119 °C.

For `Cc1cc(OCc2cc(-c3ccc(C(F)(F)F)cc3)oc2C)ccc1CC(C)C(=O)O` (stereo not shown) [Example 6(76), 2-Methyl-3-[2-methyl-4-({2-methyl-5-[4-(trifluoromethyl)phenyl]-3-furyl}methoxy)phenyl]propionic acid], the melting point was in the range of 96 to 97 °C.

Take `COC(Cc1ccc(OCc2cc(-c3ccc(C(F)(F)F)cc3)oc2C)cc1C)C(=O)O` (stereo not shown) [Example 6(77), 2-Methoxy-3-[2-methyl-4-({2-methyl-5-[4-(trifluoromethyl)phenyl]-3-furyl}methoxy)phenyl]propionic acid]: the melting point lay within 125 to 126 °C.

On to `Cc1oc(-c2ccc(C(F)(F)F)cc2)cc1COc1ccc(CC(C)(C)C(=O)O)cc1` [Example 6(78), 2,2-Dimethyl-3-[4-({2-methyl-5-[4-(trifluoromethyl)phenyl]-3-furyl}methoxy)phenyl]propionic acid], for which the melting point lay within 125 to 127 °C.

Regarding `COc1cc(CC(=O)O)ccc1OCc1cc(-c2ccc(C(F)(F)F)cc2)oc1C` [Example 6(81), [3-Methoxy-4-({2-methyl-5-[4-(trifluoromethyl)phenyl]-3-furyl}methoxy)phenyl]acetic acid], the melting point lay in the range of 139 to 140 °C.

`COc1ccc(CCC(=O)O)cc1OCc1cc(-c2ccc(C(F)(F)F)cc2)oc1C` [Example 6(82), 3-[4-Methoxy-3-({2-methyl-5-[4-(trifluoromethyl)phenyl]-3-furyl}methoxy)phenyl]propionic acid]: the melting point lay within 128 to 129 °C.

Take `Cc1oc(-c2ccc(C(F)(F)F)cc2)cc1CCOc1cccc(CC(=O)O)c1` [Example 6(83), [3-(2-{2-Methyl-5-[4-(trifluoromethyl)phenyl]-3-furyl}ethoxy)phenyl]acetic acid]: the melting point fell in the range of 92 to 94 °C.

`Cc1oc(-c2ccc(C(F)(F)F)cc2)cc1CCCOc1cccc(CC(=O)O)c1` [Example 6(84), [3-(3-{2-Methyl-5-[4-(trifluoromethyl)phenyl]-3-furyl}propoxy)phenyl]acetic acid]: the melting point was in the range of 111 to 113 °C.

In turn, `Cc1oc(-c2ccc(C(F)(F)F)cc2)cc1COc1cccc(C(C)(C)C(=O)O)c1` [Example 6(85), 2-Methyl-2-[3-({2-methyl-5-[4-(trifluoromethyl)phenyl]-3-furyl}methoxy)phenyl]propionic acid] yielded a melting point of 127 to 128 °C.

Turning to `Cc1oc(-c2ccc(C(F)(F)F)cc2)cc1COc1ccc(C(C)(C)C(=O)O)cc1` [Example 6(86), 2-Methyl-2-[4-({2-methyl-5-[4-(trifluoromethyl)phenyl]-3-furyl}methoxy)phenyl]propionic acid], the melting point is 105 to 107 °C.

Take `Cc1oc(-c2ccc(C(F)(F)F)cc2)cc1COc1cccc(OCC(=O)O)c1` [Example 6(87), [3-({2-Methyl-5-[4-(trifluoromethyl)phenyl]-3-furyl}methoxy)phenoxy]acetic acid]: the melting point lay in the range of 118 to 119 °C.

Turning to `Cc1oc(-c2ccc(C(F)(F)F)cc2)cc1COc1ccc(SC(C)(C)C(=O)O)cc1` [Example 6(88), 2-Methyl-2-{[4-({2-methyl-5-[4-(trifluoromethyl)phenyl]-3-furyl}methoxy)phenyl]thio}propionic acid], the melting point lay within 128 to 129 °C.

In turn, `Cc1oc(-c2ccc(C(F)(F)F)cc2)cc1COc1ccc2oc(CCC(=O)O)cc2c1` [Example 6(89), 3-[5-({2-Methyl-5-[4-(trifluoromethyl)phenyl]-3-furyl}methoxy)-1-benzofuran-2-yl]propionic acid] came in with a melting point of 156 to 157 °C.

Consider `Cc1oc(-c2ccc(C(F)(F)F)cc2)cc1COc1ccc2oc(CC(=O)O)cc2c1` [Example 6(90), [5-({2-Methyl-5-[4-(trifluoromethyl)phenyl]-3-furyl}methoxy)-1-benzofuran-2-yl]acetic acid], for which the melting point is 140 to 142 °C.

`CCCc1cc(OCc2cc(-c3ccc(C(F)(F)F)cc3)oc2C)ccc1CCC(=O)O` [Example 6(91), 3-[4-({2-Methyl-5-[4-(trifluoromethyl)phenyl]-3-furyl}methoxy)-2-propylphenyl]propionic acid]: the melting point is 129 to 131 °C.

As for `Cc1oc(-c2ccc(C(F)(F)F)cc2)cc1COc1ccc(OC(C)(C)C(=O)O)c(Cl)c1` [Example 6(92), 2-[2-Chloro-4-({2-methyl-5-[4-(trifluoromethyl)phenyl]-3-furyl}methoxy)phenoxy]-2-methylpropionic acid], the melting point is 92 to 93 °C.

Consider `CCc1oc(-c2ccc(C(F)(F)F)cc2)cc1CCCOc1ccc(CC(=O)O)cc1Cl` [Example 6(93), [3-Chloro-4-(3-{2-ethyl-5-[4-(trifluoromethyl)phenyl]-3-furyl}propoxy)phenyl]acetic acid], for which the melting point was 112 to 113 °C.

Take `Cc1oc(-c2ccc(C(F)(F)F)cc2)cc1COc1cc(CSC(C)(C)C(=O)O)ccc1F` [Example 6(94), 2-{[4-Fluoro-3-({2-methyl-5-[4-(trifluoromethyl)phenyl]-3-furyl}methoxy)benzyl]thio}-2-methylpropionic acid]: the melting point fell in the range of 120 to 123 °C.

`Cc1oc(-c2ccc(C(F)(F)F)cc2)cc1COc1ccc(F)c(CSC(C)(C)C(=O)O)c1` [Example 6(95), 2-{[2-Fluoro-5-({2-methyl-5-[4-(trifluoromethyl)phenyl]-3-furyl}methoxy)benzyl]thio}-2-methylpropionic acid] registered a melting point of 131 to 132 °C.

In turn, `Cc1oc(-c2ccc(C(F)(F)F)cc2)cc1COc1cccc(CSC(C)(C)C(=O)O)c1F` [Example 6(96), 2-{[2-Fluoro-3-({2-methyl-5-[4-(trifluoromethyl)phenyl]-3-furyl}methoxy)benzyl]thio}-2-methylpropionic acid] registered a melting point of 106 to 108 °C.

Consider `CCc1oc(-c2ccc(C(F)(F)F)cc2)cc1CCCOc1cccc(CC(=O)O)c1F` [Example 6(97), [3-(3-{2-Ethyl-5-[4-(trifluoromethyl)phenyl]-3-furyl}propoxy)-2-fluorophenyl]acetic acid], for which the melting point was 92 to 93 °C.

The values above are taken from US7553867B2, “Furan or thiophene derivative and medicinal use thereof” (Takeda Pharmaceutical Company Limited, priority 2002, dated 2009).
